# Source: ChEMBL document CHEMBL4507273 (2021)
# Experiments:
# [1] = biological target: 5-hydroxytryptamine receptor 6 (Homo sapiens) (UniProt P50406); conditions: Compound concentration 10.0 uM
# [2] = biological target: Cyclin-dependent kinase 15 (Homo sapiens) (UniProt Q96Q40); conditions: Compound concentration 1000.0 nM
# [3] = biological target: Non-receptor tyrosine-protein kinase TYK2 (Homo sapiens) (UniProt P29597); conditions: Compound concentration 1000.0 nM
# [4] = biological target: Sodium-dependent serotonin transporter (Homo sapiens, UniProt P31645); conditions: Compound concentration 10.0 uM
# [5] = biological target: Serine/threonine-protein kinase 38 (Homo sapiens) (UniProt Q15208); conditions: Compound concentration 1000.0 nM
# [6] = biological target: 5-hydroxytryptamine receptor 5A (Homo sapiens, UniProt P47898); assay: GPCRScan assay: inhibition of 5-HT5A; parameters: radioligand conc. used [nm] 2.0 - 3.3, parental cells Flp-In CHO
# Chain of 5-hydroxytryptamine receptor 5A (P47898 whole entry): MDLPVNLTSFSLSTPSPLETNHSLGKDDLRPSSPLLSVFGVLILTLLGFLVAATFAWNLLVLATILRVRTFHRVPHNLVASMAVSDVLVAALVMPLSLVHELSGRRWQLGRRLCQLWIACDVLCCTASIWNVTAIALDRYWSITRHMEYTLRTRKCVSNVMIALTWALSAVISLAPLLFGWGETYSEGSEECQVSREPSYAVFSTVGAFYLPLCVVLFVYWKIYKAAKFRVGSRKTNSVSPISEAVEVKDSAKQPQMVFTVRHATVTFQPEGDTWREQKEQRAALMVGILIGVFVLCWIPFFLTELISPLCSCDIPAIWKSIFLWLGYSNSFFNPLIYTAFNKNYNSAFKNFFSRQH
# [7] = biological target: D(4) dopamine receptor (Homo sapiens) (UniProt P21917); conditions: Compound concentration 10.0 uM
# [8] = biological target: Histamine H3 receptor (Homo sapiens) (UniProt Q9Y5N1); conditions: Compound concentration 10.0 uM
# Chain of Histamine H3 receptor (Homo sapiens) (Q9Y5N1 whole entry): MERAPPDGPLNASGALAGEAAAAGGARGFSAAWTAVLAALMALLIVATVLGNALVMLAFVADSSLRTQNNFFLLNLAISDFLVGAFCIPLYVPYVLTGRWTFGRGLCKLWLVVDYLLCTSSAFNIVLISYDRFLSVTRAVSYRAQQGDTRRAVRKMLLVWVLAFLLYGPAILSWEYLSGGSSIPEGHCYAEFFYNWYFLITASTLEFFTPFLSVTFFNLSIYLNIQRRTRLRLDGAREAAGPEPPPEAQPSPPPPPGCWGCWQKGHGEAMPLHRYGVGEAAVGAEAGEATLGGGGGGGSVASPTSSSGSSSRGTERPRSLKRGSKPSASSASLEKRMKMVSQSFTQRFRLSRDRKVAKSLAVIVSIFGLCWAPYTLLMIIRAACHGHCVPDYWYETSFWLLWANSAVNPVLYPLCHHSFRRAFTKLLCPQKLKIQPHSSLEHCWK
# [9] = biological target: Ribosomal protein S6 kinase alpha-6 (Homo sapiens) (UniProt Q9UK32); conditions: Compound concentration 1000.0 nM
# Chain of Ribosomal protein S6 kinase alpha-6 (Homo sapiens) (Q9UK32 whole entry): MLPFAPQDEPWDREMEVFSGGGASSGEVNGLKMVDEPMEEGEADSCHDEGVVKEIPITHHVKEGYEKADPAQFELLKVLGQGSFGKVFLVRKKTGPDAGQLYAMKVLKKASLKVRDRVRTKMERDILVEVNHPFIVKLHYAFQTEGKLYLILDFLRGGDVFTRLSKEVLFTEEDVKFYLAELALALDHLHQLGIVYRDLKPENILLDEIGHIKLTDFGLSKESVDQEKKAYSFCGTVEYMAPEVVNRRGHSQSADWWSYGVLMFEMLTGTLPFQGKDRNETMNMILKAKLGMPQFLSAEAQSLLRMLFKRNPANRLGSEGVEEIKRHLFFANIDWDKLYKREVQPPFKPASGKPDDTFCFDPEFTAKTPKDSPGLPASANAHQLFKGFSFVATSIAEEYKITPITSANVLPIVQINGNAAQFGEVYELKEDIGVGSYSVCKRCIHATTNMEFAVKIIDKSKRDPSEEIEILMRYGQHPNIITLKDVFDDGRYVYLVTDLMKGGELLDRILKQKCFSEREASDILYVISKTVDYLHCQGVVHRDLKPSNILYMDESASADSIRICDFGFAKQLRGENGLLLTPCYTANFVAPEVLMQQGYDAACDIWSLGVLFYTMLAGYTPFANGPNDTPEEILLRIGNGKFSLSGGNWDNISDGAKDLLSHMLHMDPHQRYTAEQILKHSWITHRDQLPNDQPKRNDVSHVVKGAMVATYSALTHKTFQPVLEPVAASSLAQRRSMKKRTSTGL
# [10] = biological target: Sodium-dependent noradrenaline transporter (Homo sapiens, UniProt P23975); conditions: Compound concentration 10.0 uM
# [11] = biological target: Tyrosine-protein kinase Fer (Homo sapiens) (UniProt P16591); conditions: Compound concentration 1000.0 nM
# [12] = tested on: Epidermal growth factor receptor (Homo sapiens), P00533 [UNDEFINED MUTATION]; conditions: Compound concentration 1000.0 nM
# [13] = biological target: Platelet-derived growth factor receptor alpha (Homo sapiens) (UniProt P16234); conditions: Compound concentration 1000.0 nM
# [14] = biological target: Casein kinase II subunit alpha' (Homo sapiens) (UniProt P19784); conditions: Compound concentration 1000.0 nM
# Chain of Casein kinase II subunit alpha' (Homo sapiens) (P19784 whole entry, looked up): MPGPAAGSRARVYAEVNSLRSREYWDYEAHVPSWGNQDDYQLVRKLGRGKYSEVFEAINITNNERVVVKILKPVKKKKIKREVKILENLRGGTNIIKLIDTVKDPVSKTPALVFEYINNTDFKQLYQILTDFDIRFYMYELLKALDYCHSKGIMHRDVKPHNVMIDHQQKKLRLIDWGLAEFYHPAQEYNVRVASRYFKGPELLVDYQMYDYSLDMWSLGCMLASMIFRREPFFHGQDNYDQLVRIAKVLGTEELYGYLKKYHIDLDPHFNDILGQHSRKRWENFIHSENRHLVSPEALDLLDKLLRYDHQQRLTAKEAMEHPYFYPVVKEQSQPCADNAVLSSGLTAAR
# [15] = biological target: Tyrosine-protein kinase SYK (Homo sapiens) (UniProt P43405); conditions: Compound concentration 1000.0 nM
# [16] = biological target: AP2-associated protein kinase 1 (Homo sapiens) (UniProt Q2M2I8); conditions: Compound concentration 1000.0 nM
# Chain of AP2-associated protein kinase 1 (Homo sapiens) (Q2M2I8 whole entry, looked up): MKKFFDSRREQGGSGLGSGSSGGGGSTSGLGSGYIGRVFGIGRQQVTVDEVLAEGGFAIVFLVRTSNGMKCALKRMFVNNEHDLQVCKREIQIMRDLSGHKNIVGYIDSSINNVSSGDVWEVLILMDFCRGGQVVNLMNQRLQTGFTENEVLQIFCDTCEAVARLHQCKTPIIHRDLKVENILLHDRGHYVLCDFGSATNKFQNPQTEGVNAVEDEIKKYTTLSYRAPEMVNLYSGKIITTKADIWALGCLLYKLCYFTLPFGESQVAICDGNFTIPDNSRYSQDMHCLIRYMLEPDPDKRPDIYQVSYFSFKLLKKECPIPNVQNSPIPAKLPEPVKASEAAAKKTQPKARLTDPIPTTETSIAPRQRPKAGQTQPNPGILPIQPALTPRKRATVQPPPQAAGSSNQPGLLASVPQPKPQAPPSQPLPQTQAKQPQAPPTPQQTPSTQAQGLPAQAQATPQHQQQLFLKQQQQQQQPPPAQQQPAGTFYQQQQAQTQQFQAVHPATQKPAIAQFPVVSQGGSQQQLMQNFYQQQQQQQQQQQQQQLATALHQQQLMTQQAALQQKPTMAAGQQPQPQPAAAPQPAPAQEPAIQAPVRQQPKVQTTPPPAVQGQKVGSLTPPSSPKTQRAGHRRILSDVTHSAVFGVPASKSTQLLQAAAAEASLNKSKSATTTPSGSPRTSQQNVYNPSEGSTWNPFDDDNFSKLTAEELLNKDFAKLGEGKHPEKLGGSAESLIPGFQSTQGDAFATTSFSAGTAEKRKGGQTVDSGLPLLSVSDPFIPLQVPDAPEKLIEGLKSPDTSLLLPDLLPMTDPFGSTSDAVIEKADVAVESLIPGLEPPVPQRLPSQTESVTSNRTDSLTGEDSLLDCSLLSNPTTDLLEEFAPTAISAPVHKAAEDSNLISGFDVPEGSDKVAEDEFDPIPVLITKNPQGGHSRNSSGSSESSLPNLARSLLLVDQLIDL
# [17] = biological target: Serine/threonine-protein kinase 33 (Homo sapiens) (UniProt Q9BYT3); conditions: Compound concentration 1000.0 nM
# [18] = biological target: Tyrosine-protein kinase receptor Tie-1 (Homo sapiens) (UniProt P35590); conditions: Compound concentration 1000.0 nM
# [19] = biological target: Platelet-derived growth factor receptor beta (Homo sapiens) (UniProt P09619); conditions: Compound concentration 1000.0 nM
# [20] = biological target: Serine/threonine-protein kinase TBK1 (Homo sapiens) (UniProt Q9UHD2); conditions: Compound concentration 1000.0 nM
# [21] = biological target: Discoidin domain-containing receptor 2 (Homo sapiens) (UniProt Q16832); conditions: Compound concentration 1000.0 nM
# [22] = biological target: Cyclin-dependent kinase 19 (Homo sapiens) (UniProt Q9BWU1); conditions: Compound concentration 1000.0 nM
# [23] = biological target: Myotonin-protein kinase (Homo sapiens) (UniProt Q09013); conditions: Compound concentration 1000.0 nM
# [24] = biological target: Serine/threonine-protein kinase 38-like (Homo sapiens) (UniProt Q9Y2H1); conditions: Compound concentration 1000.0 nM
# Chain of Serine/threonine-protein kinase 38-like (Homo sapiens) (Q9Y2H1 2-464 limits assumed): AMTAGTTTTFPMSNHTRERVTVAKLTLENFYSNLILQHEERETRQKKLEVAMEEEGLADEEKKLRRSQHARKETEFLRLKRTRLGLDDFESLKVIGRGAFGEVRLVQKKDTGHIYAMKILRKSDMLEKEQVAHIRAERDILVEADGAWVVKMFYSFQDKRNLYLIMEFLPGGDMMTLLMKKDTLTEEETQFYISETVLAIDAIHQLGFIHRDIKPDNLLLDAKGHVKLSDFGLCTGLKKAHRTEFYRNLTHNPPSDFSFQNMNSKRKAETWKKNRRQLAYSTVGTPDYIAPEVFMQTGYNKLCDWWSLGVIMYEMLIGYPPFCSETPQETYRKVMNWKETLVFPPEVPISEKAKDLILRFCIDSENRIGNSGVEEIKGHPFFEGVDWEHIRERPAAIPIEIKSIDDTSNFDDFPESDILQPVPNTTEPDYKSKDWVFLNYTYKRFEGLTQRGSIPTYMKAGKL
# [25] = biological target: Tyrosine-protein kinase JAK1 (Homo sapiens) (UniProt P23458); conditions: Compound concentration 1000.0 nM
# Chain of Tyrosine-protein kinase JAK1 (Homo sapiens) (P23458 whole entry): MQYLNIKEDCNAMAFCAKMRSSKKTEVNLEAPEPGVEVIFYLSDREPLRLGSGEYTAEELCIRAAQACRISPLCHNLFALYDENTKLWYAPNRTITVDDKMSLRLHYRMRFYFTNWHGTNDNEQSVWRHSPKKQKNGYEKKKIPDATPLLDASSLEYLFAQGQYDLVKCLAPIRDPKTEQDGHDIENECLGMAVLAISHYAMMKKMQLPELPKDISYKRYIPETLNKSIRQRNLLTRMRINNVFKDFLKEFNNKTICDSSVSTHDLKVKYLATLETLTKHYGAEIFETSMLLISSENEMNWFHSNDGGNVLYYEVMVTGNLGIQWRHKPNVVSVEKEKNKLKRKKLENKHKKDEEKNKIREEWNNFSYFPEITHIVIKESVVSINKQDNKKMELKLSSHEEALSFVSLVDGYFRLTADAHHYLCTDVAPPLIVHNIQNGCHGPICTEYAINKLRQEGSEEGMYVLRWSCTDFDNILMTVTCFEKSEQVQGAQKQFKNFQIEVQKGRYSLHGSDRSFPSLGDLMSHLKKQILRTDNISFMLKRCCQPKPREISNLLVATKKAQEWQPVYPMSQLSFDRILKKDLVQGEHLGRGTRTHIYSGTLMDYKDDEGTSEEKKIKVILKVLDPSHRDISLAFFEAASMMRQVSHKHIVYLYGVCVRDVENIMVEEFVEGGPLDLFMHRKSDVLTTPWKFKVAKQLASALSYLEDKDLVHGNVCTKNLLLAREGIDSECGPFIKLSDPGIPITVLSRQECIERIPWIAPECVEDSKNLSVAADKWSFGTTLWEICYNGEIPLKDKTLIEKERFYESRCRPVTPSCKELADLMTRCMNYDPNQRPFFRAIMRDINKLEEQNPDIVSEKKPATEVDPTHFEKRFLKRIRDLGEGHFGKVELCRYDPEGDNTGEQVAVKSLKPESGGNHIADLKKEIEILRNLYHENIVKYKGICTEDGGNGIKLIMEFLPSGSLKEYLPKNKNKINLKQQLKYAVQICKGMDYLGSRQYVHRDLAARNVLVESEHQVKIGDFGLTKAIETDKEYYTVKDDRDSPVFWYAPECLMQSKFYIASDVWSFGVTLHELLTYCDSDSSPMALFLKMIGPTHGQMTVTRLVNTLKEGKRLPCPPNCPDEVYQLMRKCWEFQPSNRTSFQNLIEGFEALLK
# [26] = biological target: Serine/threonine-protein kinase 10 (Homo sapiens) (UniProt O94804); conditions: Compound concentration 1000.0 nM
# [27] = biological target: T1, Protein kinase C epsilon type (Homo sapiens) (UniProt Q02156); conditions: Compound concentration 1000.0 nM
# T1 sequence (whole entry): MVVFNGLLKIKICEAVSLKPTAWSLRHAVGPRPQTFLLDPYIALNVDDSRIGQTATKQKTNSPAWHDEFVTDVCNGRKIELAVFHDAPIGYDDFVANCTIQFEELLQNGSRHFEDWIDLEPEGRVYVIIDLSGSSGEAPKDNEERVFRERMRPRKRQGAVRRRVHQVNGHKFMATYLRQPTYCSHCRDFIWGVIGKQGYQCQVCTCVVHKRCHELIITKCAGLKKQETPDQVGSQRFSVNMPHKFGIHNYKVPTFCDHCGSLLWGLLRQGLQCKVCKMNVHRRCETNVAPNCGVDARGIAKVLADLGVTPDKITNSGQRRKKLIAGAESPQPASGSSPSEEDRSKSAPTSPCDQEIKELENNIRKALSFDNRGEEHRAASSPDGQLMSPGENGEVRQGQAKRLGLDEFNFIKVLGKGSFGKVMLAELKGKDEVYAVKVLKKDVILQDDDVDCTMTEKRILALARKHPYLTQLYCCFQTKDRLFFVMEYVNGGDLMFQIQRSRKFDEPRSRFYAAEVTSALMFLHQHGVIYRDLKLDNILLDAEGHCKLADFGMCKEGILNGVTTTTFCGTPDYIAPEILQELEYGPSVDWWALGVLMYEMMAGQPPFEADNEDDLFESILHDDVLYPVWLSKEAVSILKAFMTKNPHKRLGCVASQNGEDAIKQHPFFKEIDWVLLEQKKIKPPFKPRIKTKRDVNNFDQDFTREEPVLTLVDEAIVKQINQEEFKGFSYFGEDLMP
# [28] = tested on: Mast/stem cell growth factor receptor Kit (Homo sapiens), P10721 [L576P]; conditions: Compound concentration 1000.0 nM
# [29] = biological target: Serine/threonine-protein kinase LATS1 (Homo sapiens) (UniProt O95835); conditions: Compound concentration 1000.0 nM
# [30] = biological target: Serine/threonine-protein kinase DCLK2 (Homo sapiens) (UniProt Q8N568); conditions: Compound concentration 1000.0 nM
# [31] = biological target: ALK tyrosine kinase receptor (Homo sapiens) (UniProt Q9UM73); conditions: Compound concentration 1000.0 nM
# [32] = biological target: Mitogen-activated protein kinase kinase kinase 11 (Homo sapiens) (UniProt Q16584); conditions: Compound concentration 1000.0 nM
# [33] = tested on: Phosphatidylinositol 4,5-bisphosphate 3-kinase catalytic subunit alpha isoform (Homo sapiens), P42336 [E542K]; conditions: Compound concentration 1000.0 nM
# [34] = tested on: Receptor-type tyrosine-protein kinase FLT3 (Homo sapiens), P36888 [UNDEFINED MUTATION]; conditions: Compound concentration 1000.0 nM
# [35] = biological target: Serine/threonine-protein kinase Nek4 (Homo sapiens) (UniProt P51957); conditions: Compound concentration 1000.0 nM
# Chain of Cyclin-dependent kinase 15 (Homo sapiens) (Q96Q40 whole entry): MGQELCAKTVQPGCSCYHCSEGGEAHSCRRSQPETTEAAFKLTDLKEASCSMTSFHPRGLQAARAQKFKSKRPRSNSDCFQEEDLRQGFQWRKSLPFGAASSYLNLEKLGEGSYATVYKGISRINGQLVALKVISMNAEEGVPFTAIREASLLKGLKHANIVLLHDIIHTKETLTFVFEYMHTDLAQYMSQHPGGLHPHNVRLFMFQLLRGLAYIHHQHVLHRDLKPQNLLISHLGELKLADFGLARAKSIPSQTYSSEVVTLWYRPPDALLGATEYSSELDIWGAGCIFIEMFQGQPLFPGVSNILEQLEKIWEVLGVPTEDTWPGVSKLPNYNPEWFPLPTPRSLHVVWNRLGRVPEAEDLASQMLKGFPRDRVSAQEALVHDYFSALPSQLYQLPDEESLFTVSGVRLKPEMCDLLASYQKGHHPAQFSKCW
Structure (SMILES),inhibition [1],residual activity [2],residual activity [3],inhibition [4],residual activity [5],Ki ([6]; read-out: Ki),Ki ([6]; read-out: pKi (converted)),inhibition [7],inhibition [8],residual activity [9],inhibition [10],residual activity [11],residual activity [12],residual activity [13],residual activity [14],residual activity [15],residual activity [16],residual activity [17],residual activity [18],residual activity [19],other results
CNCc1ccccc1-c1csc([C@H](C)Nc2nc(C)nc3cc(OC)c(OC)cc23)c1 [BAY-294],20.2%,100%,100%,56.2%,87%,1060 nM,977 nM,31%,24.6%,100%,69.3%,100%,100%,92%,100%,100%,94%,73%,100%,99%,residual activity [20]: 100%; residual activity [21]: 94%; residual activity [22]: 88%; residual activity [23]: 85%; residual activity [24]: 94%; residual activity [25]: 68%; residual activity [26]: 100%; residual activity [27]: 78%; residual activity [28]: 100%; residual activity [29]: 100%; residual activity [30]: 100%; residual activity [31]: 73%; residual activity [32]: 100%; residual activity [33]: 88%; residual activity [34]: 79%; residual activity [35]: 83%
CNCc1ccccc1-c1csc([C@@H](C)Nc2nc(C)nc3cc(OC)c(OC)cc23)c1 [BAY-293],-1.41%,100%,99%,47.4%,60%,2550 nM,2140 nM,56.7%,26.7%,85%,84%,100%,61%,84%,100%,100%,95%,45%,100%,91%,residual activity [20]: 100%; residual activity [21]: 92%; residual activity [22]: 85%; residual activity [23]: 86%; residual activity [24]: 86%; residual activity [25]: 73%; residual activity [26]: 95%; residual activity [27]: 74%; residual activity [28]: 92%; residual activity [29]: 100%; residual activity [30]: 99%; residual activity [31]: 79%; residual activity [32]: 99%; residual activity [33]: 80%; residual activity [34]: 57%; residual activity [35]: 83%
